This note sets out measurements from US20240368133A1, “Compounds for the Treatment of Pain, in Particular, Neuropathic Pain, and/or Other Diseases or Disorders that are Associated with AT2R and/or AT2R Mediated Signaling” (Confo Therapeutics N.V., priority 2021, published 2024).

In experiment [1] the target is human AT1R (Homo sapiens (Human), UniProt P30556). Kind of experiment: Counterscreen radioligand binding assay, displacement of 125I-[Sar1, Ile8]-Angiotensin II, hAT1R WT. The conditions noted are these: for inhibition at 1 µM: read-out: % Displaced radioligand at 1 μM; for inhibition at 10 µM: read-out: % Displaced radioligand at 10 μM; for IC50: HEK-293 cell membranes, read-out: Binding affinity On hAT1R IC50. The essentials: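 Membranes from HEK-293 cells expressing human AT1R were incubated for one hour at 25° C, pH 7.4, with 0.05 nM radiolabelled [Sar1, Ile8]-Ang II and test ligand. Bound radioactivity was collected on PEI-soaked filters, with 10 μM unlabelled [Sar1]-Ang II defining non-specific binding. Results are percent displacement at 1 μM and […], or IC50 from eight-point duplicate curves.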
human AT1R, sequence (P30556 whole entry): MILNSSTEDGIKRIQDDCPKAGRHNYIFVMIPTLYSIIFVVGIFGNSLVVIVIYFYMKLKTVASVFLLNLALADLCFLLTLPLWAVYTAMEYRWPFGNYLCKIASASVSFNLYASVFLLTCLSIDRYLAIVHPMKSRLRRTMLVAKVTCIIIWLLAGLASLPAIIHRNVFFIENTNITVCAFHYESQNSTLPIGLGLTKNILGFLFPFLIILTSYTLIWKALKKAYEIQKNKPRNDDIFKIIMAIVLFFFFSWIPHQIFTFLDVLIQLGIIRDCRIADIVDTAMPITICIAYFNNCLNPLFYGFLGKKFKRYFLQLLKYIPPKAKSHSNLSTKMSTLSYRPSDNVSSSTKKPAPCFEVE

Experiment [2] has as its target human AT2R fused to Cb23 (Homo sapiens, UniProt P50052). Kind of experiment: Radioligand binding assay, displacement of 125I-[Sar1, Ile8]-Angiotensin II, hAT2R Cb23. The conditions noted are these: displacement of 125I-[Sar1, Ile8]-Angiotensin II, human AT2R fused to Cb23, HEK-293 cell membrane preparations; read-out: Binding affinity on hAT2R_Cb23 IC50. The method in brief:
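Membranes from HEK-293 cells expressing human AT2R fused to Cb23 were incubated with 0.05 nM 125I-[Sar1, Ile8]-Angiotensin II in 100 μL buffer (50 mM Tris, 5 mM MgCl2, 1 mM EDTA, 0.1% BSA, pH 7.4) for one hour at 25° C. Ligands were tested as eight-point dose-response curves in duplicate, with C21 and Angiotensin II as references.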
(In a radioligand displacement assay an active substance lowers the binding of a labelled ligand.)

Setting [3] is: 125I-[Sar1, Ile8]-Ang II, compound at 1 μM, semi-quantitative score.
The mark [4] stands for this setting: 125I-[Sar1, Ile8]-Ang II, compound at 10 μM, semi-quantitative score.

human AT2R fused to Cb23, sequence (P50052 whole entry, looked up, the tested form may be a part): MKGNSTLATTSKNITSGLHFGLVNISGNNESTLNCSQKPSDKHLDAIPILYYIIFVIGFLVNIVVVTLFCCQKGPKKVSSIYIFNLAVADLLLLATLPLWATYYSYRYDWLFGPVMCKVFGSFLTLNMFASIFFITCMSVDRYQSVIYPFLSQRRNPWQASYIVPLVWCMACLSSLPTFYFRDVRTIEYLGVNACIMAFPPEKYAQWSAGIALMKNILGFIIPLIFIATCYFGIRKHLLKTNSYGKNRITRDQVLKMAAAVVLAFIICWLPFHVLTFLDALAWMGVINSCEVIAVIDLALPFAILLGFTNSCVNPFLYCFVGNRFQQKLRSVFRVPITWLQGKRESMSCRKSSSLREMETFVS

As usually defined, the IC50 is the concentration that gives 50% inhibition. For the compound `CC(C)Cc1cc(F)c(-c2nn[nH]n2)c(N2CCN(Cc3ncc(F)cc3Cl)CC2)c1` [Compound A-206, 1-[(3-chloro-5-fluoro-2-pyridyl)-methyl]-4-[3-fluoro-5-isobutyl-2-(2H-tetrazol-5-yl)phen-yl]piperazine], the inhibition at 1 µM in experiment [1] (setting [3]) is below 30%. For the same compound, the inhibition at 10 µM in experiment [1] (setting [4]) is below 30%. For the same compound, the half-maximal inhibitory concentration (IC50) in experiment [2] was found to be 1080 nM.
In the case of `COc1cnc(CN2CCN(c3cc(CC(C)C)cc(F)c3-c3nn[nH]n3)CC2)cc1OC` [Compound A-207, 1-[(4,5-dimethoxy-2-pyridyl)methyl]-4-[3-fluoro-5-isobutyl-2-(2H-tetrazol-5-yl)phenyl]piperazine], in experiment [1] (setting [3]), the inhibition at 1 µM was below 30%. Besides, the inhibition at 10 µM in experiment [1] (setting [4]) is below 30%. In addition, in experiment [2], the IC50 is 1210 nM.
With `COc1ccnc(CN2CCN(c3cc(CC(C)C)cc(F)c3-c3nn[nH]n3)CC2)c1C` [Compound A-208, 1-[3-fluoro-5-isobutyl-2-(2H-tetrazol-5-yl)phen-yl]-4-[(4-methoxy-3-methyl-2-pyrid-yl)methyl]piper-azine], the inhibition at 1 µM in experiment [1] (setting [3]) is below 30%. The inhibition at 10 µM in experiment [1] (setting [4]) was below 30%. The half-maximal inhibitory concentration (IC50) in experiment [2] amounted to 1920 nM.
Regarding `CC(C)Cc1cc(F)c(-c2nn[nH]n2)c(N2CCN(Cc3ccc(C#N)cn3)CC2)c1` [Compound A-209, 6-[[4-[3-fluoro-5-isobutyl-2-(2H-tetrazol-5-yl)phen-yl]piperazin-1-yl]-methyl]pyridine-3-carbonitrile], in experiment [1] (setting [3]), the inhibition at 1 µM fell in the range of 30 to 50%. For the same compound, the inhibition at 10 µM in experiment [1] (setting [4]) is above 50%. Also, the half-maximal inhibitory concentration (IC50) in experiment [1] worked out at 6.74 µM; in experiment [2], 3680 nM.
In the case of `CC(C)Cc1cc(F)c(-c2nn[nH]n2)c(N2CCN(Cc3cc(Cl)c(F)cn3)CC2)c1` [Compound A-210, 1-[(4-chloro-5-fluoro-2-pyridyl)-methyl]-4-[3-fluoro-5-isobutyl-2-(2H-tetrazol-5-yl)phen-yl]piperazine], the inhibition at 1 µM in experiment [1] (setting [3]) is below 30%. Besides, the inhibition at 10 µM in experiment [1] (setting [4]) is below 30%. The half-inhibitory concentration (IC50) in experiment [2] came to 2010 nM.
Consider `CC(C)Cc1cc(F)c(-c2nn[nH]n2)c(N2CCN(Cc3ncc(F)cc3F)CC2)c1` [Compound A-211, 1-[(3,5-difluoro-2-pyridyl)methyl]-4-[3-fluoro-5-isobutyl-2-(2H-tetrazol-5-yl)phenyl]piperazine], for which, in experiment [1] (setting [3]), the inhibition at 1 µM is below 30%. In addition, the inhibition at 10 µM in experiment [1] (setting [4]) was below 30%. Also, the half-inhibitory concentration (IC50) in experiment [2] came out at 1290 nM.
As for `CC(C)Cc1ccc(-c2nn[nH]n2)c(N2CCN(C(C)c3cccnn3)CC2)c1` (stereo not drawn) [Compound A-212, 3-[1-[4-[5-isobutyl-2-(2H-tetrazol-5-yl)-phenyl]piperazin-1-yl]ethyl]pyrid-azine], the inhibition at 1 µM in experiment [1] (setting [3]) was below 30%. Also, the inhibition at 10 µM in experiment [1] (setting [4]) was below 30%. For the same compound, the IC50 in experiment [2] stood at 434 nM.
Take `CC(C)Cc1cc(F)c(-c2nn[nH]n2)c(N2CCN(C(=O)c3cccnn3)CC2)c1` [Compound A-213, [4-[3-fluoro-5-isobutyl-2-(2H-tetrazol-5-yl)phenyl]piperazin-1-yl]-pyridazin-3-yl-methanone]: in experiment [1] (setting [3]), the inhibition at 1 µM was below 30%. Also, in experiment [1] (setting [4]), the inhibition at 10 µM was below 30%. Also, the IC50 in experiment [2] turned out to be 389 nM.
In the case of `CC(C)Cc1cc(F)c(-c2nn[nH]n2)c(N2CCN(C(C)c3ccccn3)CC2)c1` (stereo not drawn) [Compound A-214, 1-[3-fluoro-5-isobutyl-2-(2H-tetrazol-5-yl)phenyl]-4-[1-(2-pyridyl)ethyl]piperazine], in experiment [1] (setting [3]), the inhibition at 1 µM was below 30%. For the same compound, the inhibition at 10 µM in experiment [1] (setting [4]) was below 30%. Further, the IC50 in experiment [2] is 38.6 nM.
For the compound `CC(C)Cc1cc(F)c(-c2nn[nH]n2)c(N2CCN(C(=O)c3ccccn3)CC2)c1` [Compound A-215, [4-[3-fluoro-5-isobutyl-2-(2H-tetrazol-5-yl)phen-yl]piperazin-1-yl]-(2-pyridyl)meth-anone], the inhibition at 1 µM in experiment [1] (setting [3]) is below 30%. Besides, in experiment [1] (setting [4]), the inhibition at 10 µM is below 30%. Also, the 50% inhibitory concentration (IC50) in experiment [2] amounted to 300 nM.
For `CC(C)Cc1cc(F)c(-c2nn[nH]n2)c(N2CCN(C(=O)c3ccccn3)[C@@H](C)C2)c1` [Compound A-216, [(2S)-4-[3-fluoro-5-isobutyl-2-(2H-tetrazol-5-yl)phen-yl]-2-methyl-piperazin-1-yl]-(2-pyridyl)methanone], the inhibition at 1 µM in experiment [1] (setting [3]) is below 30%. Besides, the inhibition at 10 µM in experiment [1] (setting [4]) is below 30%. Further, the IC50 in experiment [2] was found to be 247 nM.
For the compound `CC(C)Cc1cc(F)c(-c2nn[nH]n2)c(N2CCN(C(C)c3ccccn3)[C@@H](C)C2)c1` (stereo partly drawn) [Compound A-218, (2S)-4-[3-fluoro-5-isobutyl-2-(2H-tetrazol-5-yl)phenyl]-2-methyl-1-[1-(2-pyridyl)ethyl]piperazine], the inhibition at 1 µM in experiment [1] (setting [3]) is below 30%. Further, the inhibition at 10 µM in experiment [1] (setting [4]) is below 30%. The half-inhibitory concentration (IC50) in experiment [2] came out at 122 nM.
On to `Cc1cnc(CN2CCN(c3c(-c4nn[nH]n4)ccc(CC(C)C)c3F)CC2)s1` [Compound A-219, 2-[[4-[2-fluoro-3-isobutyl-6-(2H-tetrazol-5-yl)phen-yl]piperazin-1-yl]-methyl]-5-methyl-thiazole], for which, in experiment [1] (setting [3]), the inhibition at 1 µM is below 30%. For the same compound, the inhibition at 10 µM in experiment [1] (setting [4]) was below 30%. Besides, the IC50 turned out to be 55.2 µM in experiment [1] and 681 nM in experiment [2].
For the compound `Cc1cnc(CN2CCN(c3cc(CC(C)C)cc(F)c3-c3nn[nH]n3)CC2)s1` [Compound A-220, 2-[[4-[3-fluoro-5-isobutyl-2-(2H-tetrazol-5-yl)phen-yl]piperazin-1-yl]-methyl]-5-methyl-thiazole], in experiment [1] (setting [3]), the inhibition at 1 µM was below 30%. Besides, the inhibition at 10 µM in experiment [1] (setting [4]) is below 30%. Besides, the IC50 in experiment [2] came to 80.7 nM.
Take `Cc1cnc(CN2CCN(c3cc(CC(C)C)cnc3-c3nn[nH]n3)CC2)s1` [Compound A-221, 2-((4-(5-isobutyl-2-(2H-tetrazol-5-yl)pyridin-3-yl)piperazin-1-yl)methyl)-5-methylthiazole]: in experiment [1] (setting [3]), the inhibition at 1 µM is below 30%. In addition, in experiment [1] (setting [4]), the inhibition at 10 µM is below 30%. Moreover, the half-inhibitory concentration (IC50) in experiment [2] stood at 2740 nM.
`Cc1cnc(CN2CCN(c3cc(CC(C)C)cc(F)c3-c3nn[nH]n3)CC2C)s1` (stereo not drawn) [Compound A-222, 2-[[4-[3-fluoro-5-isobutyl-2-(2H-tetrazol-5-yl)phenyl]-2-methyl-piperazin-1-yl]methyl]-5-methyl-thiazole]: the inhibition at 1 µM in experiment [1] (setting [3]) was below 30%. In experiment [1] (setting [4]), the inhibition at 10 µM is below 30%. Also, the IC50 in experiment [2] amounted to 9.47 nM.
On to `Cc1cnc(CN2C(C)CN(c3cc(CC(C)C)cc(F)c3-c3nn[nH]n3)CC2C)s1` (stereo not drawn) [Compound A-224, 2-[[4-[3-fluoro-5-isobutyl-2-(2H-tetrazol-5-yl)phen-yl]-2,6-dimethyl-piperazin-1-yl]-methyl]-5-methyl-thiazole], for which the inhibition at 1 µM in experiment [1] (setting [3]) was below 30%. Further, the inhibition at 10 µM in experiment [1] (setting [4]) is below 30%. In experiment [2], the half-maximal inhibitory concentration (IC50) came out at 92.2 nM.
With `Cc1cnc(C(C)N2CCN(c3cc(CC(C)C)cc(F)c3-c3nn[nH]n3)CC2)s1` (stereo not drawn) [Compound A-225, 2-[1-[4-[3-fluoro-5-isobutyl-2-(2H-tetrazol-5-yl)phen-yl]piperazin-1-yl]-ethyl]-5-methyl-thiazole], the “% Displaced radioligand at 1 μM” value in experiment [1] (setting [3]) was “* (* <30%)”. For the same compound, the “% Displaced radioligand at 10 μM” value in experiment [1] (setting [4]) is reported as “* (* <30%)”. Besides, the 50% inhibitory concentration (IC50) in experiment [2] was 54.1 nM.
Turning to `Cc1cnc(C(C)N2CCN(c3cc(CC(C)C)cc(F)c3-c3nn[nH]n3)C[C@@H]2C)s1` (stereo partly drawn) [Compound A-226, 2-[1-[(2S)-4-[3-fluoro-5-isobutyl-2-(2H-tetrazol-5-yl)phenyl]-2-methyl-piperazin-1-yl]ethyl]-5-methyl-thiazole], in experiment [1] (setting [3]), the inhibition at 1 µM is below 30%. Further, in experiment [1] (setting [4]), the inhibition at 10 µM is below 30%. The half-maximal inhibitory concentration (IC50) in experiment [2] is 37.2 nM.
`CC(C)Cc1ccc(-c2nn[nH]n2)c(N2CCCN(Cc3cccnn3)CC2)c1` [Compound A-230, 1-[5-isobutyl-2-(2H-tetrazol-5-yl)-phenyl]-4-(pyrid-azin-3-ylmethyl)-1,4-diazepane]: the inhibition at 1 µM in experiment [1] (setting [3]) was below 30%. Besides, the inhibition at 10 µM in experiment [1] (setting [4]) was below 30%. For the same compound, the IC50 in experiment [2] stood at 1230 nM.
Regarding `CC(C)Cc1cc(F)c(-c2nn[nH]n2)c(N2CCCN(Cc3cccnn3)CC2)c1` [Compound A-231, 1-[3-fluoro-5-isobutyl-2-(2H-tetrazol-5-yl)phenyl]-4-(pyridazin-3-ylmethyl)-1,4-diazepane], the inhibition at 1 µM in experiment [1] (setting [3]) was below 30%. For the same compound, in experiment [1] (setting [4]), the inhibition at 10 µM fell in the range of 30 to 50%. For the same compound, the half-inhibitory concentration (IC50) in experiment [1] stood at 18.9 µM; in experiment [2], 368 nM.
Take `CC(C)Cc1ccc(-c2nn[nH]n2)c(N2CC3CN(Cc4cccnn4)CC3C2)c1` (stereo not drawn) [Compound A-232, 5-[5-isobutyl-2-(2H-tetrazol-5-yl)-phenyl]-2-(pyrid-azin-3-ylmethyl)-1,3,3a,4,6,6a-hexahydropyrrolo-[3,4-c]pyrrole]: the inhibition at 1 µM in experiment [1] (setting [3]) was below 30%. In addition, the inhibition at 10 µM in experiment [1] (setting [4]) is below 30%. Moreover, in experiment [2], the IC50 was 2670 nM.
Regarding `CC(C)Cc1cc(F)c(-c2nn[nH]n2)c(N2CC3CN(Cc4cccnn4)CC3C2)c1` (stereo not drawn) [Compound A-233, 5-[3-fluoro-5-isobutyl-2-(2H-tetrazol-5-yl)phenyl]-2-(pyridazin-3-ylmethyl)-1,3,3a,4,6,6a-hexahydropyrrolo[3,4-c]pyrrole], the inhibition at 1 µM in experiment [1] (setting [3]) is below 30%. Moreover, the inhibition at 10 µM in experiment [1] (setting [4]) was below 30%. In addition, the IC50 in experiment [2] amounted to 1310 nM.
